Values quoted from earlier work as cited in patent US12329862B2, “Transdermal therapeutic system containing asenapine” (LTS LOHMANN THERAPIE-SYSTEME AG, priority 2018, dated 2025).

bioavailability (if ingested): < 2% | terminal disposition half-life (sublingual administration, therapeutic doses): ≥ 24 h
SMILES: CN1C[C@H]2c3ccccc3Oc3ccc(Cl)cc3[C@@H]2C1 (relative stereo) [asenapine, (3aRS,12bRS)-rel-5-chloro-2,3,3a,12b-tetrahydro-2-methyl-1H-dibenz[2,3:6,7]oxepino[4,5-c]pyrrole]
Somnolence and anxiety, share of the patients (very common side effects): ≥ 10%
